The values that follow come from US7074925B1, “N-substituted derivatives of 5-oxyiminobarbituric acid” (priority 1998, dated 2006).

Marks after values point to notes of the source that are not given here.

The subject of test [1] is Herpes virus of the type I (HSV-I/Leningrad/248/88). Briefly: Effect on Herpes virus, cytopathogenic action on Vero cells. The class given is cell-based, Herpes Simplex virus. The conditions noted are these: for Quantity of the unchanged cells (number of cells in 100 visual fields): Vero cells, 36 hours, cell control 10000; for percentage of protection of cells from virus: compared to the control of cell culture. The procedure: An antiviral activity was determined with respect to Herpes virus of the type I (HSV-I/Leningrad/248/88) by means of commonly accepted method. Viruses were grown on a continuous culture of Vero cells that have been received from the Bank of Cell Cultures of the Institute of Cytology of the Russian Academy of Science.
A virus in a final concentration of […] and the claimed compounds dissolved in DMSO in final concentrations of 100, 10 and 1 mg/l were added to cells that were grown on the RPMI-1640 medium with 10% fetal calf serum and placed into wells of the 96-well plate. 5 separate wells were used for each of tested concentrations of an agent. The plate was incubated during 60 minutes at 38° C. in a CO2-incubator. After the incubation, the virus was removed and then a fresh medium containing claimed compounds in used concentrations was again introduced.
Results were evaluated basing on presence of cytopathogenic action on the cells after 36 hours of incubation at 38° C. in the CO2-incubator.
The next controls were used in the experiment: • 1. Control of cell culture (capability to grow properly) • 2. Control of the virus (evaluation of capability for reproduction) • 3. Control of an antiviral activity of an antiviral drug Acyclovir • 4. Control of compounds (toxicity of compounds) • 5. Control of a solvent (DMSO) for toxicity.
To estimate a cytopathic action of the virus, a quantity of the unchanged cells was calculated in 100 visual fields formed by a special net of an eyepiece of the inverted microscope.
On the technique in general: Damage to the host cells serves as the signal in cytopathic effect assays.

Test [2] is described as follows: Antiulcerous action, water immersion stress with immobilization. The conditions noted are these: 20 mg/kg perorally. The class given is in vivo, rats. The procedure: Antiulcerous activity of substances was tested on a model of experimental water immersion stress with immobilization. […] After that, gastric mucous membrane was investigated, number and sizes of ulcers were counted, ulceration index was determined (an average sum of ulcer lengths per one animal in a group).

A short description of test [3]: Hypoglycemic activity after glucose load. The conditions noted are these: Glibenclamide I mg/kg. The test is classed as in vivo, mice. The procedure:
Test substance (100 mg/kg) was perorally administrated to fasted mice, and, immediately after that, solution of glucose (1000 mg/kg) was administrated subcutaneously. Glucose content in blood was determined in a hour by the orthotoluidine method. Reducing of glucose level by more than 20% relative to control animals indicated hypoglycemic properties. Glibenclamide (I mg/kg) was utilized as a reference agent.

In test [4] the test system is primary culture of human lymphocytes (IFN-α production). Put plainly: Interferon-inducing activity in primary culture of human lymphocytes. The test is classed as cell-based. The procedure:
Interferon synthesis induction caused by the claimed compounds was conducted on a primary culture of human lymphocytes (it is these cells in a human organism that are the main producers of interferons). To obtain lymphocyte culture, fresh blood (within 12 hours after sampling) from healthy donors (not of group II) was used. To separate lymphocytes, heparinized blood obtained from healthy donor was centrifuged in a density gradient of ficoll-verografin of […] in order to extract a fraction of immunocompetent cells. This fraction was selected and diluted with the nutrient medium RPMI-1640, containing 5% of fetal calf serum, 0.3 mg/ml of L-glutamin, 100 un/ml of penicillin, and […] of streptomycin. The concentration of lymphocytes was considered after dying them with methylene blue and calculation of cell number in Goryaev chamber. Initial solutions of the claimed compounds were diluted with the nutrient medium RPMI-1640 so that the final concentrations of the compounds, which were obtained after introduction of lymphocyte suspension, constituted the raw: 100 μg/ml, 10 μg/ml, 1 μg/ml. The final concentration of lymphocytes in the induction mixture was 3×10^6 cell/ml.
In parallels to the test samples the following controls were done: • 1). Control of spontaneous production of interferons (IFN) by lymphocytes. • 2). […] Control of spontaneous production of interferons in presence of DMSO taken in an amount corresponding to the test samples.
Control and test samples were incubated for 24 hours at the temperature of 37° C. After incubation, the samples were centrifuged at 2,000 G to deposit cell elements, and IFN-containing supernatant was separate out of samples; then the supernatant was analyzed for the quantitative content of IFN. Cell deposition was resuspended in the previous volume of nutrient medium, coloured with vital dye trypan blue, and cell number was counted in the Goryaev chamber (as described above) to determine cytotoxic action of the compounds. The quantitative determination of content of IFN in control and test samples was conducted using the immunoenzyme test system Pro Con IF2 Plus, that is intended for determination of IFN-α, which is produced by TOO “Protein contour”. The solid-phase immunoenzyme method, utilizing horse radish peroxidase as an indicator enzyme, was used to determine the quantity of interferon in the samples. Activity of the bonded peroxidase was measured using an automatic photometer for microplates with a microprocessor at the wavelength of 450 nm.
Based on the obtained results, a calibrating curve was formed, which allows to obtain data expressed in international units (IU) of activity, using the microprocessor of the automatic photometer. The results of the analysis are expressed in IU of activity of IFN per ml in the given induction system, which contains 3×10^4 lymphocyte/ml. Each test and control point was investigated in four parallels.
Controls of immunoenzyme reaction: • 1. Control of DMSO with a nutrient medium. • 2. Control of system components (according to an instruction).
The obtained data were undergone a statistical analysis using t-criterion, and calculation of the confident interval of probability at p=0.05 was carried out. Coincidence of results in the parallel tests was analyzed.

The test system of the next test is C.trachomatis D323. Put plainly: Action on Chlamydia trachomatis in cell culture. The test is classed as cell-based. The conditions noted are these: 100 mg/l; for Number of unchanged cells: 48 hours, counted in 100 visual fields, cell control 8.000, infected cells 6.000. The procedure:
The antimicrobial activity of the claimed compounds was studied relative to C.trachomatis […], which is a standard strain from the collection of the chair of microbiology of St. Petersburg State Pavlov Medical University. […] Cell cultures McCoy and L929 obtained from the Institute of Cytology of RAS were used in this work. Cells were grown in flasks made of neutral glass in the medium RPMI-1640 with the addition of 10% of fetal calf serum. The test was performed in glass (non-toxic) flat-bottom flasks with cover glasses. The cells were introduced into the medium in the final concentration of […]. […] Simultaneously, tested compounds in a final concentration of 100 mg/l were added to the cells. The sample was centrifuged at 2400 G during 60 minutes at room temperature and incubated at 37° C. for 2 hours. […] The samples were doubled using the medium without cycloheximide so as to exclude its effect on the investigated compounds. The samples were incubated in a CO2-incubator for 48 hours. […] The effect of the action of substance was determined by analysis of the monolayer state and number of cells with CPI when compared with the control (cell culture infected with C.trachomatis […]); in doing so, the number of unchanged cells, that were counted in 100 visual fields obtained using the special net of the microscope eyepiece, was taken into consideration. […] Control of cell culture: morphology of cells and state of monolayer correspond to the given type of the cells; control of chlamydia growth in the cell culture: presence of CPI in the monolayer; control of action of standard antimicrobial agent: reduction of number of CPI in the monolayer as compared to the previous control; control of toxicity of the claimed compounds: toxicity is absent; control of action of solvents: toxic action on cells is absent.

In the case of `Nc1nc2c(ncn2COCCO)c(=O)[nH]1` [Acyclovir, reference compound], in test [1] (Acyclovir), the “Quantity of the unchanged cells (number of cells in 100 visual fields)” value (shortened to “Quantity of the unchanged cells”) is given as 8000* and the “percentage of protection of cells from virus” value (shortened to “percentage … from virus”) is “(80%)**”.

On to `CN(C)CCCN1c2ccccc2Sc2ccc(Cl)cc21` [Chlorpromazine, reference compound], for which, in test [2] (rats, 4 hours stress, control 100), the “% of animals with ulcers” value was found to be 33%. In test [2] (versus control), the “% of reducing number of ulcers” value is on record as −96% and the “% of reducing ulceration index” value is recorded as −97%. The same molecule gave a Number of lesions in test [2] (control 8.3 ± 2.5) of 0.3 ± 0.3. Also, the ulceration index in test [2] (control 10.5 ± 5.7) was determined as 0.3 ± 0.3.

As for `COc1ccc(Cl)cc1C(=O)NCCc1ccc(S(=O)(=O)NC(=O)NC2CCCCC2)cc1` [Glibenclamide, reference compound], the “% change of glucose relative to glucose control” value in test [3] is recorded as −40%. Also, in test [3] (glucose 1000 mg/kg s.c., after one hour), the Glucose in blood stood at 4.95 ± 0.31 mmol/L.

Turning to `CC(C)(C)N1C(=O)NC(=O)C(=NO)C1=O` [III], the “Content of IFN in induction mixture after 24-hour incubation” value (“Content of IFN in induction mixture” for short) in test [4] (substance 1 mg/l) was 4.2 ± 0.8 IU/3 × 10^4 lymph./ml; in test [4] (substance 10 mg/l), 23.5 ± 1.2 IU/3 × 10^4 lymph./ml; in test [4] (substance 100 mg/l), 65 ± 1.2 IU/3 × 10^4 lymph./ml. In the test on C.trachomatis D323, the “percentage of cell protection from infection” value (“percentage of cell protection” below) is recorded as “(50%)”. In addition, the “Number of unchanged cells” value in the test on C.trachomatis D323 is on record as 7.000. For the same molecule, the “Quantity of the unchanged cells” value in test [1] (compound 100 μg/ml) is recorded as 5000. The “percentage … from virus” value in test [1] (compound 100 μg/ml) is “(50%)”.

As for `COc1ccc(CN2C(=O)NC(=O)C(=NO)C2=O)cc1` [XIII], in the test with C.trachomatis D323, the “percentage of cell protection” value was “(50%)” and the “Number of unchanged cells” value is given as 7.000. In addition, in test [1] (compound 100 μg/ml), the “Quantity of the unchanged cells” value was 4500 and the “percentage … from virus” value was “(45%)”.

As for `O=C1NC(=O)N(Cc2ccc(F)cc2)C(=O)C1=NO` [XII], in the test on C.trachomatis D323, the “percentage of cell protection” value is “(30%)” and the “Number of unchanged cells” value was determined as 6.600. In addition, in test [1] (compound 100 μg/ml), the “Quantity of the unchanged cells” value is on record as 4000 and the “percentage … from virus” value is on record as “(40%)”.

Regarding `O=C1NC(=O)N(Cc2ccccc2)C(=O)C1=NO` [XI], the “Content of IFN in induction mixture” value is given as 32.8 ± 1.0 IU/3 × 10^4 lymph./ml in test [4] (substance 1 mg/l), 53.5 ± 1.2 IU/3 × 10^4 lymph./ml in test [4] (substance 10 mg/l) and 60 ± 1.8 IU/3 × 10^4 lymph./ml in test [4] (substance 100 mg/l). Moreover, the “Quantity of the unchanged cells” value in test [1] (compound 100 μg/ml) came to 3500. For the same molecule, the “percentage … from virus” value in test [1] (compound 100 μg/ml) is recorded as “(35%)”.

In the case of `O=C1NC(=S)N(c2ccc(Cl)cc2)C(=O)C1=NO` [XLVI], the results for the “Content of IFN in induction mixture” value in test [4] (substance 1 mg/l), in test [4] (substance 10 mg/l) and in test [4] (substance 100 mg/l) were 6.6 ± 0.8 IU/3 × 10^4 lymph./ml, 24.4 ± 1.4 IU/3 × 10^4 lymph./ml and 52.1 ± 1.8 IU/3 × 10^4 lymph./ml, respectively.

`CC(Cc1ccccc1)N1C(=O)NC(=O)C(=NO)C1=O` (stereo not shown) [XVII]: the results for the “Content of IFN in induction mixture” value in test [4] (substance 1 mg/l), in test [4] (substance 10 mg/l) and in test [4] (substance 100 mg/l) were 6.2 ± 0.5 IU/3 × 10^4 lymph./ml, 13.0 ± 2.5 IU/3 × 10^4 lymph./ml and 19.2 ± 1.2 IU/3 × 10^4 lymph./ml, respectively. Moreover, the “percentage of cell protection” value in the test on C.trachomatis D323 is recorded as “(35%)”. Besides, the “Number of unchanged cells” value with C.trachomatis D323 was determined as 6.700.

Turning to `O=C1NC(=O)N(CCc2ccc(F)cc2)C(=O)C1=NO` [XV], in test [1] (compound 100 μg/ml), the “Quantity of the unchanged cells” value came out at 4000 and the “percentage … from virus” value is recorded as “(40%)”.

Turning to `O=C1NC(=O)N(c2cccc3ccccc23)C(=O)C1=NO` [XXXIV], in the test on C.trachomatis D323, the “percentage of cell protection” value was “(35%)” and the “Number of unchanged cells” value came to 6.700.

`C=CCN1C(=O)C(=NO)C(=O)NC1=S` [XXXIX]: in the test with C.trachomatis D323, the “percentage of cell protection” value is “(65%)” and the “Number of unchanged cells” value was found to be 7.300.

Take `CCN1C(=O)C(=NO)C(=O)NC1=S` [XXXVI]: the “Content of IFN in induction mixture” value in test [4] (substance 1 mg/l) is reported as 5.2 ± 1.0 IU/3 × 10^4 lymph./ml; in test [4] (substance 10 mg/l), 6.8 ± 1.5 IU/3 × 10^4 lymph./ml; in test [4] (substance 100 mg/l), 26.0 ± 1.4 IU/3 × 10^4 lymph./ml.

In the case of `CCOc1ccc(N2C(=O)NC(=O)C(=NO)C2=O)cc1` [XXX], in the test on C.trachomatis D323, the “percentage of cell protection” value is “(35%)” and the “Number of unchanged cells” value amounted to 6.700. Besides, in test [1] (compound 100 μg/ml), the “Quantity of the unchanged cells” value worked out at 3000 and the “percentage … from virus” value is “(30%)”.

Regarding `Cc1ccccc1N1C(=O)NC(=O)C(=NO)C1=O` [XX], in test [1] (compound 100 μg/ml), the “Quantity of the unchanged cells” value stood at 3500 and the “percentage … from virus” value was “(35%)”.

On to `O=C1NC(=O)N(CCC2=CCCCC2)C(=O)C1=NO` [X], for which the “Content of IFN in induction mixture” value in test [4] (substance 1 mg/l) is reported as 8.6 ± 1.0 IU/3 × 10^4 lymph./ml; in test [4] (substance 10 mg/l) it was 11.0 ± 1.2 IU/3 × 10^4 lymph./ml; in test [4] (substance 100 mg/l) it was 30 ± 1.8 IU/3 × 10^4 lymph./ml.
